In the NIST ThermoML archive (doi:10.1021/je0601513):

Assay: molar heat capacity at constant pressure; xn = mol fraction of the nth substance listed
Details: 101 kPa, Liquid, Small sample (50 mg) DSC

C[S+](C)[O-] [dimethyl sulfoxide] + CCCO
molar heat capacity at constant pressure [J/K/mol]
Details | 288.15 K | 298.15 K | 308.15 K
x1 = 0.0514 | 138.1 | 143.6 | 149.7
x1 = 0.1127 | 137.3 | 142.3 | 147.9
x1 = 0.2114 | 136.2 | 140.3 | 145.2
x1 = 0.3163 | 135.5 | 139.1 | 143
x1 = 0.418 | 135.3 | 138.6 | 141.4
x1 = 0.5029 | 135.7 | 138.6 | 140.9
x1 = 0.6216 | 136.7 | 139.7 | 141.2
x1 = 0.7068 | 138.1 | 141.1 | 142.4
x1 = 0.7975 | 140 | 143.5 | 144.7
x1 = 0.8537 | 141.7 | 145.4 | 146.8
x1 = 0.8994 | 143.1 | 147.4 | 148.7
x1 = 0.9429 | 144.6 | 149.4 | 151
